In paper PMC11314561, “Design and Synthesis of Novel Aminoindazole-pyrrolo[2,3-b]pyridine Inhibitors of IKKα That Selectively Perturb Cellular Non-Canonical NF-κB Signalling” (Molecules, 2024):

Assays:
Experiment in all cases: kinase panel
Assay type in all cases: biochemical
TLK2(h) = TLK2(h) (Homo sapiens, UniProt Q86UE8)
Outline: (§1)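 % inhibition read-out; kinome panel of 231 kinases; one analogue run on a selected 98-kinase subset only.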

WNK2(h) = WNK2(h) (Homo sapiens, UniProt Q9Y3S1)
Outline: as §1

MAPKAP-K3(h) = MAPKAP-K3(h) (Homo sapiens, UniProt Q16644)
Outline: as §1

Tec(h) activated = Tec(h) activated (Homo sapiens, UniProt P42680)
Outline: as §1

MSK2(h) = MSK2(h) (Homo sapiens, UniProt O75676)
Outline: as §1

PKBβ(h) = PKBβ(h) (Homo sapiens, UniProt P31751)
Outline: as §1

SGK2(h) = SGK2(h) (Homo sapiens, UniProt Q9HBY8)
Chain of SGK2(h) (Q9HBY8 whole entry): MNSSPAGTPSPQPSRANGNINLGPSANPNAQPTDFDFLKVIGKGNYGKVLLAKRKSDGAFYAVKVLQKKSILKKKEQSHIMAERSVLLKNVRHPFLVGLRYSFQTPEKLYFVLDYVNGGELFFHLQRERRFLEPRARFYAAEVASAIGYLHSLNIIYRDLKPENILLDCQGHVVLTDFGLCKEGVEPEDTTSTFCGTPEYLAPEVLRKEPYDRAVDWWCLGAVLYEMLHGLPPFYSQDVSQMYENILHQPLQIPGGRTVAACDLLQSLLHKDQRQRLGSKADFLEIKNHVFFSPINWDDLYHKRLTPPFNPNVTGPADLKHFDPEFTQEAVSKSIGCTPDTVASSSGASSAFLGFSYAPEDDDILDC
Outline: as §1

Hck(h) = Hck(h) (Homo sapiens, UniProt P08631)
Chain of Hck(h) (P08631 whole entry): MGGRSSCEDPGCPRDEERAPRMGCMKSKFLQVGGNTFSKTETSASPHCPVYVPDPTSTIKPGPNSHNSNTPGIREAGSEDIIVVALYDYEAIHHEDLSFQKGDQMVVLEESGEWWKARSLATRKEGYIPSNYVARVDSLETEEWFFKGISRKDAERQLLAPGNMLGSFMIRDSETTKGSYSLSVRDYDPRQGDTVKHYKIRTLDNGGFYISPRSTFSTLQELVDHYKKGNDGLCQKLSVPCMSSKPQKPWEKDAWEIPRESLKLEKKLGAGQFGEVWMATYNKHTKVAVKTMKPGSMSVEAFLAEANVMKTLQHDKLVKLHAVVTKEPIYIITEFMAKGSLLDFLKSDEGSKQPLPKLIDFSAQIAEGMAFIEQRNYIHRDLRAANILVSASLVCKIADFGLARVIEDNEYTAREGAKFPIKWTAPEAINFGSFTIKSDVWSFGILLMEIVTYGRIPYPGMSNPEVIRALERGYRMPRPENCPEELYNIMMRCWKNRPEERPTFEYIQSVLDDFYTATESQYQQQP
Outline: as §1

GRK6(h) = GRK6(h) (Homo sapiens, UniProt P43250)
Outline: as §1

PKCβII(h) = PKCβII(h) (Homo sapiens, UniProt P05771)
Outline: as §1

MST1(h) = MST1(h) (Homo sapiens, UniProt Q13043)
Outline: as §1

VRK2(h) = VRK2(h) (Homo sapiens, UniProt Q86Y07)
Outline: as §1

ASK1(h) = ASK1(h) (Homo sapiens, UniProt Q99683)
Outline: as §1

FAK(h) = FAK(h) (Homo sapiens, UniProt Q05397)
Chain of FAK(h) (Q05397 whole entry): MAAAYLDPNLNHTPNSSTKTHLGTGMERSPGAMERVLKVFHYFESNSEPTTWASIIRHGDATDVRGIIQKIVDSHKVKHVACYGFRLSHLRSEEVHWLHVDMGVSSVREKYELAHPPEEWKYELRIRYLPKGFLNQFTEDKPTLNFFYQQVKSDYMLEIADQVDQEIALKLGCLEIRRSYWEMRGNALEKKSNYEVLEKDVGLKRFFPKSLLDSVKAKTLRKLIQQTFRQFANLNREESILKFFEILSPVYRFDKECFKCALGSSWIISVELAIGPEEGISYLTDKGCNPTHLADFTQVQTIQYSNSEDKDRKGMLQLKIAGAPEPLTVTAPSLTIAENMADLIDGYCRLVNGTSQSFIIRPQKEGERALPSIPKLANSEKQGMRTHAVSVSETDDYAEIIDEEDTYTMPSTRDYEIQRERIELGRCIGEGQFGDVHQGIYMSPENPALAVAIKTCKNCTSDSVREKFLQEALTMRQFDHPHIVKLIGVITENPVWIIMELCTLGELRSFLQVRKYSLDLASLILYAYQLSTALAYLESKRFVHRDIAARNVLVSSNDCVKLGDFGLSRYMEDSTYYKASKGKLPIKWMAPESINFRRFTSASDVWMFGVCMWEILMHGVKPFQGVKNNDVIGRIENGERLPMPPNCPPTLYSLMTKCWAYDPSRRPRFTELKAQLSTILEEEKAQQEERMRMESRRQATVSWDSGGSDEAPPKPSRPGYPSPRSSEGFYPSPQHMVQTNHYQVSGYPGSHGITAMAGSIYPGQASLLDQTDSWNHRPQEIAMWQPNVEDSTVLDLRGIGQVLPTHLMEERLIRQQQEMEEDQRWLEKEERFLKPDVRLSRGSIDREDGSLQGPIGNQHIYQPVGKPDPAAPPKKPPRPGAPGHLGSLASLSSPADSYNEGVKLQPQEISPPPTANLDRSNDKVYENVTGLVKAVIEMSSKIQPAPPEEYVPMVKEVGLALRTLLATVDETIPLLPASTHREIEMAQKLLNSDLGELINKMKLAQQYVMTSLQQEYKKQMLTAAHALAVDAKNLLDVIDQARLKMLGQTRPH
Outline: as §1

PEK(h) = PEK(h) (Homo sapiens, UniProt Q9NZJ5)
Outline: as §1

EphB1(h) = EphB1(h) (Homo sapiens, UniProt P54762)
Outline: as §1

MAPK2(h) = MAPK2(h) (Homo sapiens, UniProt P28482)
Outline: as §1

MSSK1(h) = MSSK1(h) (Homo sapiens, UniProt Q9UPE1)
Outline: as §1

Pim-2(h) = Pim-2(h) (Homo sapiens, UniProt Q9P1W9)
Outline: as §1

BTK(h) = BTK(h) (Homo sapiens, UniProt Q06187)
Outline: as §1

PhKγ2(h) = PhKγ2(h) (Homo sapiens, UniProt P15735)
Chain of PhKγ2(h) (P15735 whole entry): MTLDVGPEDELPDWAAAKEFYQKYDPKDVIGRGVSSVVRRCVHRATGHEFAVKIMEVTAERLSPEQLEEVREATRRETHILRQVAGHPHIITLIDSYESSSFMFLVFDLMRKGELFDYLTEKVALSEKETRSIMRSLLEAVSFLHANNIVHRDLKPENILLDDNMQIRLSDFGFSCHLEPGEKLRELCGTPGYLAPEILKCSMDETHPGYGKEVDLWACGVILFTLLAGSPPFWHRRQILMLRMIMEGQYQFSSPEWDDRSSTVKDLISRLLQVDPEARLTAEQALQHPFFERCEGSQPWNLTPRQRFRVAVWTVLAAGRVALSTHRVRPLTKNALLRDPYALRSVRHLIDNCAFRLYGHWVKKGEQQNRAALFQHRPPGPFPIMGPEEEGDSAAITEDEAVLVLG
Outline: as §1

PKCι(h) = PKCι(h) (Homo sapiens, UniProt P41743)
Outline: as §1

MuSK(h) = MuSK(h) (Homo sapiens, UniProt O15146)
Outline: as §1

DRAK1(h) = DRAK1(h) (Homo sapiens, UniProt Q9UEE5)
Outline: as §1

CK1γ2(h) = CK1γ2(h) (Homo sapiens, UniProt P78368)
Chain of CK1γ2(h) (P78368 whole entry): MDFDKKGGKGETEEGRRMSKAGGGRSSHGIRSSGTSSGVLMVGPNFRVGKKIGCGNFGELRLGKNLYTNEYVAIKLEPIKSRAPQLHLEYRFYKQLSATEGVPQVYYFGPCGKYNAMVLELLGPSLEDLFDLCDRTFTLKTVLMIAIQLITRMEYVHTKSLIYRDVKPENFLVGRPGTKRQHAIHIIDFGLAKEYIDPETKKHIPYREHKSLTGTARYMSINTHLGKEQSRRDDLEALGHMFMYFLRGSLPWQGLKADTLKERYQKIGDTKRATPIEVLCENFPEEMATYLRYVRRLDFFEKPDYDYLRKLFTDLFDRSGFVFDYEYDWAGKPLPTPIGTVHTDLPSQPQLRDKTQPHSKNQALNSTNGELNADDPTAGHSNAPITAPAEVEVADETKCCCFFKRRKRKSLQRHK
Outline: as §1

PKCθ(h) = PKCθ(h) (Homo sapiens, UniProt Q04759)
Outline: as §1

PKCε(h) = PKCε(h) (Homo sapiens, UniProt Q02156)
Outline: as §1

PKCβI(h) = PKCβI(h) (Homo sapiens, UniProt P05771)
Outline: as §1

NEK3(h) = NEK3(h) (Homo sapiens, UniProt P51956)
Outline: as §1

EphB2(h) = EphB2(h) (Homo sapiens, UniProt P29323)
Outline: as §1

NLK(h) = NLK(h) (Homo sapiens, UniProt Q9UBE8)
Outline: as §1

STK33(h) = STK33(h) (Homo sapiens, UniProt Q9BYT3)
Outline: as §1

Mnk2(h) = Mnk2(h) (Homo sapiens, UniProt Q9HBH9)
Outline: as §1

EphA8(h) = EphA8(h) (Homo sapiens, UniProt P29322)
Outline: as §1

Rsk4(h) = Rsk4(h) (Homo sapiens, UniProt Q9UK32)
Outline: as §1

Fer(h) = Fer(h) (Homo sapiens, UniProt P16591)
Outline: as §1

IRR(h) = IRR(h) (Homo sapiens, UniProt P14616)
Outline: as §1

PTK5(h) = PTK5(h) (Homo sapiens, UniProt P42685)
Outline: as §1

PKCδ(h) = PKCδ(h) (Homo sapiens, UniProt Q05655)
Outline: as §1

GRK7(h) = GRK7(h) (Homo sapiens, UniProt Q8WTQ7)
Outline: as §1

EphB4(h) = EphB4(h) (Homo sapiens, UniProt P54760)
Outline: as §1

MLK1(h) = MLK1(h) (Homo sapiens, UniProt P80192)
Outline: as §1

Chain of WNK2(h) (Q9Y3S1 whole entry): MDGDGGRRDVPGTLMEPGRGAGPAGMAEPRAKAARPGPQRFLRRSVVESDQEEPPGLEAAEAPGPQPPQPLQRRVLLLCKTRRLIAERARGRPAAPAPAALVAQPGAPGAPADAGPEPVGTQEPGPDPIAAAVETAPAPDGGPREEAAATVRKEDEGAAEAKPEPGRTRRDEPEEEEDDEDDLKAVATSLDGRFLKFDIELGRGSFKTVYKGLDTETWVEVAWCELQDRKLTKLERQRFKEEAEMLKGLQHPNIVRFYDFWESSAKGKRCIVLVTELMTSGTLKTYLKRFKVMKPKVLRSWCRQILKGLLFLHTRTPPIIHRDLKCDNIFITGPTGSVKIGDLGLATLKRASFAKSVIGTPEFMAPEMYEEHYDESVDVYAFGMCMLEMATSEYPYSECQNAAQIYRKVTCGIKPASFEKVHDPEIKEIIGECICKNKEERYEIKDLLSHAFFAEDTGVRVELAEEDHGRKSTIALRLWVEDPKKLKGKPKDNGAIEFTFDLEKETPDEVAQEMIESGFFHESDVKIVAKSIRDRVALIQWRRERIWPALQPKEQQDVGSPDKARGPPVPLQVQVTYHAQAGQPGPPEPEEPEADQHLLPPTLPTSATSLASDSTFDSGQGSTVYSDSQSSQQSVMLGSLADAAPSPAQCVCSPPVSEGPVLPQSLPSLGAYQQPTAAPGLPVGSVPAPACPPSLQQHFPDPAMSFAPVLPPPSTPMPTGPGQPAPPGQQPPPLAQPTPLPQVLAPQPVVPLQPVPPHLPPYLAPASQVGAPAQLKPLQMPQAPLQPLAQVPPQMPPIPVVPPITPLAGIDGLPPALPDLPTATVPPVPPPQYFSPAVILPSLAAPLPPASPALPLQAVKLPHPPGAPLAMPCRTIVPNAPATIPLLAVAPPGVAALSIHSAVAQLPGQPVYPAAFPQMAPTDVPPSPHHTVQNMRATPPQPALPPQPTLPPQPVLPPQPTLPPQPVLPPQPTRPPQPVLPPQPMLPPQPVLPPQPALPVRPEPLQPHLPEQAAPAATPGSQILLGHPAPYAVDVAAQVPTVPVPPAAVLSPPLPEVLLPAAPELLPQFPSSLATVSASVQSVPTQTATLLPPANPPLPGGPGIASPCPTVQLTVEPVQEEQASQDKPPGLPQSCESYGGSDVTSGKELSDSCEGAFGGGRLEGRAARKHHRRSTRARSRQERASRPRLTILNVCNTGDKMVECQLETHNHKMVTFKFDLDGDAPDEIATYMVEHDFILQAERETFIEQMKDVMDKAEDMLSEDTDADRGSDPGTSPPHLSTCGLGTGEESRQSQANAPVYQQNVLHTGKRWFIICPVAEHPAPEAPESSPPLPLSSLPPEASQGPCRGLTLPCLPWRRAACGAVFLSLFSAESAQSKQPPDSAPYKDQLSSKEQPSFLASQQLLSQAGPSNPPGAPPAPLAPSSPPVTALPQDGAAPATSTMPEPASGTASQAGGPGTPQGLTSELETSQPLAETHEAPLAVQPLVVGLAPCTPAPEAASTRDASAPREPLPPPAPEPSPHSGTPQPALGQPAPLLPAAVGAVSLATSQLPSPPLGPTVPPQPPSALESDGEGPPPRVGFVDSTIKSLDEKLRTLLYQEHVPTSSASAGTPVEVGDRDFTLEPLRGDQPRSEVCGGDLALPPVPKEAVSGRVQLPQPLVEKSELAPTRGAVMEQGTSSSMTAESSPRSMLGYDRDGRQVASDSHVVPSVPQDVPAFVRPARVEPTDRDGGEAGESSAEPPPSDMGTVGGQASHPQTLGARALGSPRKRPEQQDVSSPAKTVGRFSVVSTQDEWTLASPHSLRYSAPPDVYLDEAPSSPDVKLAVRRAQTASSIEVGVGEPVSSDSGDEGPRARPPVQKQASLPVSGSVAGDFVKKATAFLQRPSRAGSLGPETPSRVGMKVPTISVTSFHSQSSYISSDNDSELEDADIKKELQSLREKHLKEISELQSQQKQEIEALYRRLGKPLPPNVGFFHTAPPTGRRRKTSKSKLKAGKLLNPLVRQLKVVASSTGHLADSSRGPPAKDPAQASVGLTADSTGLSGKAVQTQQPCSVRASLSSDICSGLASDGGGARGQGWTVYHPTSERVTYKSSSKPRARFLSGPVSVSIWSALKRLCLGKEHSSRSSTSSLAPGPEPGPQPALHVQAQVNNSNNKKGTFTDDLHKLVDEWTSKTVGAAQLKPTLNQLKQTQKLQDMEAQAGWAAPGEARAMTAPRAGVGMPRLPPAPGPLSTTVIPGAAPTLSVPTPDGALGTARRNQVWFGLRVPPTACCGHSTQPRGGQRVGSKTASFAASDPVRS

Nc1n[nH]c2ccc(-c3ccnc4[nH]c(-c5ccccc5)cc34)cc12 [Compound 4]
inhibition at 1 µM (TLK2(h)): -8% | inhibition at 1 µM (WNK2(h)): 29% | inhibition at 1 µM (MAPKAP-K3(h)): 12% | inhibition at 1 µM (Tec(h) activated): 29% | inhibition at 1 µM (MSK2(h)): 12% | inhibition at 1 µM (PKBβ(h)): 3% | inhibition at 1 µM (SGK2(h)): 44% | inhibition at 1 µM (Hck(h)): 21% | inhibition at 1 µM (GRK6(h)): 0% | inhibition at 1 µM (PKCβII(h)): 9% | inhibition at 1 µM (MST1(h)): 33% | inhibition at 1 µM (VRK2(h)): 0% | inhibition at 1 µM (ASK1(h)): 18% | inhibition at 1 µM (FAK(h)): 35% | inhibition at 1 µM (PEK(h)): 10% | inhibition at 1 µM (EphB1(h)): 63% | inhibition at 1 µM (MAPK2(h)): 29% | inhibition at 1 µM (MSSK1(h)): 12% | inhibition at 1 µM (Pim-2(h)): 25% | inhibition at 1 µM (BTK(h)): 11% | inhibition at 1 µM (PhKγ2(h)): 50% | inhibition at 1 µM (PKCι(h)): 3% | inhibition at 1 µM (MuSK(h)): 48% | inhibition at 1 µM (DRAK1(h)): 67% | inhibition at 1 µM (CK1γ2(h)): 49% | inhibition at 1 µM (PKCθ(h)): 6% | inhibition at 1 µM (PKCε(h)): -14% | inhibition at 1 µM (PKCβI(h)): -2% | inhibition at 1 µM (NEK3(h)): 0% | inhibition at 1 µM (EphB2(h)): 12% | inhibition at 1 µM (NLK(h)): 51% | inhibition at 1 µM (STK33(h)): 38% | inhibition at 1 µM (Mnk2(h)): 67% | inhibition at 1 µM (EphA8(h)): -2% | inhibition at 1 µM (Rsk4(h)): 17% | inhibition at 1 µM (Fer(h)): 7% | inhibition at 1 µM (IRR(h)): 26% | inhibition at 1 µM (PTK5(h)): 74% | inhibition at 1 µM (PKCδ(h)): 16% | inhibition at 1 µM (GRK7(h)): 10% | inhibition at 1 µM (EphB4(h)): 53% | inhibition at 1 µM (MLK1(h)): 79%

Nc1n[nH]c2ccc(-c3ccnc4[nH]c(-c5cccc(OCc6ccccc6)c5)cc34)cc12 [Compound 5r [SU1261]]
inhibition at 1 µM (TLK2(h)): 0% | inhibition at 1 µM (WNK2(h)): 22% | inhibition at 1 µM (MAPKAP-K3(h)): -1% | inhibition at 1 µM (Tec(h) activated): 62% | inhibition at 1 µM (MSK2(h)): -3% | inhibition at 1 µM (PKBβ(h)): -5% | inhibition at 1 µM (SGK2(h)): 30% | inhibition at 1 µM (Hck(h)): 16% | inhibition at 1 µM (GRK6(h)): -8% | inhibition at 1 µM (PKCβII(h)): -1% | inhibition at 1 µM (MST1(h)): 4% | inhibition at 1 µM (VRK2(h)): -11% | inhibition at 1 µM (ASK1(h)): 23% | inhibition at 1 µM (FAK(h)): 8% | inhibition at 1 µM (PEK(h)): 8% | inhibition at 1 µM (EphB1(h)): 14% | inhibition at 1 µM (MAPK2(h)): -1% | inhibition at 1 µM (MSSK1(h)): 13% | inhibition at 1 µM (Pim-2(h)): 5% | inhibition at 1 µM (BTK(h)): 3% | inhibition at 1 µM (PhKγ2(h)): 21% | inhibition at 1 µM (PKCι(h)): -10% | inhibition at 1 µM (MuSK(h)): 13% | inhibition at 1 µM (DRAK1(h)): 24% | inhibition at 1 µM (CK1γ2(h)): 28% | inhibition at 1 µM (PKCθ(h)): -14% | inhibition at 1 µM (PKCε(h)): 0% | inhibition at 1 µM (PKCβI(h)): -6% | inhibition at 1 µM (NEK3(h)): -14% | inhibition at 1 µM (EphB2(h)): -8% | inhibition at 1 µM (NLK(h)): 1% | inhibition at 1 µM (STK33(h)): 25% | inhibition at 1 µM (Mnk2(h)): 26% | inhibition at 1 µM (EphA8(h)): -7% | inhibition at 1 µM (Rsk4(h)): 4% | inhibition at 1 µM (Fer(h)): -16% | inhibition at 1 µM (IRR(h)): 1% | inhibition at 1 µM (PTK5(h)): 29% | inhibition at 1 µM (PKCδ(h)): 6% | inhibition at 1 µM (GRK7(h)): -3% | inhibition at 1 µM (EphB4(h)): 25% | inhibition at 1 µM (MLK1(h)): 56%
